Results as given in ChEMBL document CHEMBL1201862, “PubChem BioAssay data set” (2004).
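Where inhibition never reached the appropriate level, the endpoint shown equals the highest concentration tested. Otherwise, values were interpolated linearly from a five-concentration, 48-hour dose response in 96-well plates. GI50 marks 50% less growth.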 The source made the active and inactive calls. Cut-off read from the data, not from the text of the source: active = GI50 up to about 1.1 µM and inactive = higher.

How the values were obtained:
Experiment in all cases: DTP human tumour cell line panel, 48 h
786-0 = system: 786-0
A498 = system: A498
A549 = system: A549
ACHN = system: ACHN
BT-549 = system: BT-549
CAKI-1 = system: CAKI-1
CCRF-CEM = system: CCRF-CEM
COLO 205 = system: COLO 205
DU-145 = system: DU-145
EKVX = system: EKVX
HCC 2998 = system: HCC 2998
HCT-116 = system: HCT-116
HCT-15 = system: HCT-15
HL-60 = system: HL-60
HOP-62 = system: HOP-62
HOP-92 = system: HOP-92
HT-29 = system: HT-29
IGROV-1 = system: IGROV-1
K562 = system: K562
KM12 = system: KM12
LOX IMVI = system: LOX IMVI
M14 = system: M14
MCF7 = system: MCF7
MDA-MB-231 = system: MDA-MB-231
MDA-MB-435 = system: MDA-MB-435
MDA-N = system: MDA-N
MOLT-4 = system: MOLT-4
Malme-3M = system: Malme-3M
NCI-H226 = system: NCI-H226
NCI-H23 = system: NCI-H23
NCI-H460 = system: NCI-H460
NCI-H522 = system: NCI-H522
NCI/ADR-RES = system: NCI/ADR-RES
OVCAR-3 = system: OVCAR-3
OVCAR-4 = system: OVCAR-4
OVCAR-5 = system: OVCAR-5
OVCAR-8 = system: OVCAR-8
PC-3 = system: PC-3
RPMI-8226 = system: RPMI-8226
RXF 393 = system: RXF 393
SF-268 = system: SF-268
SF-295 = system: SF-295
SF-539 = system: SF-539
SK-MEL-28 = system: SK-MEL-28
SK-MEL-2 = system: SK-MEL-2
SK-OV-3 = system: SK-OV-3
SN12C = system: SN12C
SNB-19 = system: SNB-19
SNB-75 = system: SNB-75
SR = system: SR
SW-620 = system: SW-620
T47D = system: T47D
TK-10 = system: TK-10
U-251 = system: U-251
UACC-257 = system: UACC-257
UACC-62 = system: UACC-62
UO-31 = system: UO-31
SK-MEL-5 = system: SK-MEL-5

`Cc1ccnc(Nc2[nH]c(C(=O)c3ccc(Cl)cc3)c(N)c2C(=S)Nc2ccccc2)c1` was tested, and the GI50 (786-0) was 19.1 µM (inactive), the GI50 (A498) was 19.1 µM (inactive) and the GI50 (A549) was 16 µM (inactive). For the same compound, the GI50 (ACHN) was 21.7 µM (inactive), the GI50 (BT-549) was 14.2 µM (inactive) and the GI50 (CAKI-1) was 27.9 µM (inactive). For the same compound, the GI50 (CCRF-CEM) was 25.8 µM (inactive), the GI50 (COLO 205) was 16 µM (inactive) and the GI50 (DU-145) was 22.1 µM (inactive). The GI50 (EKVX) was 14.5 µM (inactive), the GI50 (HCC 2998) was 14.7 µM (inactive) and the GI50 (HCT-116) was 14.2 µM (inactive). The GI50 (HCT-15) was 16.1 µM, the GI50 (HL-60) was 23.8 µM (inactive) and the GI50 (HOP-62) was 20.5 µM (inactive). The GI50 (HOP-92) was 17.2 µM (inactive), the GI50 (HT-29) was 14.9 µM (inactive) and the GI50 (IGROV-1) was 9.02 µM (inactive). For the same compound, the GI50 (K562) was 18.3 µM (inactive), the GI50 (KM12) was 10 µM (inactive) and the GI50 (LOX IMVI) was 14.8 µM (inactive). For the same compound, the GI50 (M14) was 16.4 µM (inactive), the GI50 (MCF7) was 9.16 µM (inactive) and the GI50 (MDA-MB-231) was 16.6 µM (inactive). The GI50 (MDA-MB-435) was 15.7 µM (inactive), the GI50 (MDA-N) was 15.2 µM (inactive) and the GI50 (MOLT-4) was 10.9 µM (inactive). For the same compound, the GI50 (Malme-3M) was 13.8 µM (inactive), the GI50 (NCI-H226) was 17.7 µM (inactive) and the GI50 (NCI-H23) was 19.3 µM (inactive). For the same compound, the GI50 (NCI-H460) was 5.82 µM (inactive), the GI50 (NCI-H522) was 12.8 µM (inactive) and the GI50 (NCI/ADR-RES) was 2.57 µM (inactive). The GI50 (OVCAR-3) was 25.8 µM (inactive), the GI50 (OVCAR-4) was 6.01 µM (inactive) and the GI50 (OVCAR-5) was 21.2 µM (inactive). For the same compound, the GI50 (OVCAR-8) was 12.2 µM (inactive), the GI50 (PC-3) was 20.8 µM (inactive) and the GI50 (RPMI-8226) was 11 µM (inactive). The GI50 (RXF 393) was 15.9 µM (inactive), the GI50 (SF-268) was 21.1 µM (inactive) and the GI50 (SF-295) was 14.5 µM (inactive). The GI50 (SF-539) was 12.7 µM (inactive), the GI50 (SK-MEL-28) was 18.6 µM (inactive) and the GI50 (SK-MEL-2) was 8.59 µM (inactive). For the same compound, the GI50 (SK-OV-3) was 13.8 µM (inactive), the GI50 (SN12C) was 15.7 µM (inactive) and the GI50 (SNB-19) was 23.4 µM (inactive). The GI50 (SNB-75) was 18.1 µM (inactive), the GI50 (SR) was 12.6 µM (inactive) and the GI50 (SW-620) was 25.9 µM (inactive). For the same compound, the GI50 (T47D) was 19.7 µM (inactive), the GI50 (TK-10) was 17.2 µM (inactive) and the GI50 (U-251) was 15.1 µM (inactive). For the same compound, the GI50 (UACC-257) was 15.6 µM (inactive), the GI50 (UACC-62) was 10.6 µM (inactive) and the GI50 (UO-31) was 18 µM (inactive).
For `CC(=O)n1nc(-c2ccccc2)n(/N=C/c2ccc([N+](=O)[O-])cc2)c1=O`, the GI50 (786-0) was > 100 µM (inactive), the GI50 (A498) was > 100 µM (inactive) and the GI50 (A549) was > 100 µM (inactive). For the same compound, the GI50 (ACHN) was > 100 µM (inactive), the GI50 (BT-549) was > 100 µM (inactive) and the GI50 (CAKI-1) was > 100 µM (inactive). The GI50 (CCRF-CEM) was > 100 µM (inactive), the GI50 (COLO 205) was > 100 µM (inactive) and the GI50 (DU-145) was > 100 µM (inactive). The GI50 (EKVX) was 31.1 µM (inactive), the GI50 (HCC 2998) was > 100 µM (inactive) and the GI50 (HCT-116) was > 100 µM (inactive). For the same compound, the GI50 (HCT-15) was > 100 µM, the GI50 (HL-60) was > 100 µM (inactive) and the GI50 (HOP-92) was 59.3 µM (inactive). The GI50 (HT-29) was > 100 µM (inactive), the GI50 (IGROV-1) was > 100 µM (inactive) and the GI50 (K562) was > 100 µM (inactive). The GI50 (KM12) was > 100 µM (inactive), the GI50 (LOX IMVI) was > 100 µM (inactive) and the GI50 (M14) was > 100 µM (inactive). For the same compound, the GI50 (MDA-MB-231) was 35 µM (inactive), the GI50 (MDA-MB-435) was > 100 µM (inactive) and the GI50 (MDA-N) was > 100 µM (inactive). For the same compound, the GI50 (MOLT-4) was > 100 µM (inactive), the GI50 (Malme-3M) was 90.8 µM (inactive) and the GI50 (NCI-H226) was > 100 µM (inactive). For the same compound, the GI50 (NCI-H23) was > 100 µM (inactive), the GI50 (NCI-H460) was > 100 µM (inactive) and the GI50 (NCI-H522) was 51.3 µM (inactive). The GI50 (NCI/ADR-RES) was > 100 µM (inactive), the GI50 (OVCAR-3) was > 100 µM (inactive) and the GI50 (OVCAR-4) was 41.3 µM (inactive). For the same compound, the GI50 (OVCAR-5) was > 100 µM (inactive), the GI50 (OVCAR-8) was 98.2 µM (inactive) and the GI50 (PC-3) was > 100 µM (inactive). The GI50 (RPMI-8226) was > 100 µM (inactive), the GI50 (RXF 393) was 65.9 µM (inactive) and the GI50 (SF-268) was 43.5 µM (inactive). For the same compound, the GI50 (SF-295) was > 100 µM (inactive), the GI50 (SF-539) was > 100 µM (inactive) and the GI50 (SK-MEL-28) was > 100 µM (inactive). The GI50 (SK-MEL-2) was > 100 µM (inactive), the GI50 (SK-MEL-5) was > 100 µM (inactive) and the GI50 (SK-OV-3) was 52.8 µM (inactive). The GI50 (SN12C) was > 100 µM (inactive), the GI50 (SNB-19) was > 100 µM (inactive) and the GI50 (SNB-75) was > 100 µM (inactive). For the same compound, the GI50 (SR) was > 100 µM (inactive), the GI50 (SW-620) was > 100 µM (inactive) and the GI50 (T47D) was > 100 µM (inactive). The GI50 (TK-10) was > 100 µM (inactive), the GI50 (U-251) was > 100 µM (inactive) and the GI50 (UACC-257) was > 100 µM (inactive). For the same compound, the GI50 (UACC-62) was > 100 µM (inactive) and the GI50 (UO-31) was > 100 µM (inactive).
